In patent US20240327429A1, “[1,3]Thiazolo[4,5-d]-pyrimidon-7-ones as inhibitors of NOX4” (Boehringer Ingelheim International GmbH, priority 2023, published 2024) one finds IC50 data, which are given here for 39 compounds.

Usually IC50 stands for the concentration that inhibits the measured activity by half. A high value points to weaker potency in that assay.

Structures are written as SMILES. Where “and” joins values, the source holds several entries; their conditions need not be identical. Equal entries are not always repeated. Where only a bound is given, the exact number is not on record here.

One assay deals with T1, NOX2 (Homo sapiens, UniProt P04839).
T1 construct: endogenous in cells; host or cells: freshly isolated human blood-derived granulocytes
T1 sequence (P04839 2-570 limits assumed): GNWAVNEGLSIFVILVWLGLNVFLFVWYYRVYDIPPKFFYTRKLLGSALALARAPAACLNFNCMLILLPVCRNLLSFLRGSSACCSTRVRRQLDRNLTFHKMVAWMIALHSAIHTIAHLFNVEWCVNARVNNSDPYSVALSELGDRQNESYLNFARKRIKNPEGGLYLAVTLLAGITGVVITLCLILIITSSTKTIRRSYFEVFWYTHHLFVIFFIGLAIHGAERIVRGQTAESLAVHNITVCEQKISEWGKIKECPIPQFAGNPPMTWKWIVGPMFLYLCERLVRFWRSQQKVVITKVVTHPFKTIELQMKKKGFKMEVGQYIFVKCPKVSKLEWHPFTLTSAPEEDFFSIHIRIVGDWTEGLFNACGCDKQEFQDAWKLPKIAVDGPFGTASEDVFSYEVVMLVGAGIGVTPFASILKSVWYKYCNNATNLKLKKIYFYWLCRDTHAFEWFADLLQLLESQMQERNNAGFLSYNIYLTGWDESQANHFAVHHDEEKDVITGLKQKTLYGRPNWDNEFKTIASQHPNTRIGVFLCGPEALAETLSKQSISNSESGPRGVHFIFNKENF
T1 sequence (P13498 2-195 partner limits assumed): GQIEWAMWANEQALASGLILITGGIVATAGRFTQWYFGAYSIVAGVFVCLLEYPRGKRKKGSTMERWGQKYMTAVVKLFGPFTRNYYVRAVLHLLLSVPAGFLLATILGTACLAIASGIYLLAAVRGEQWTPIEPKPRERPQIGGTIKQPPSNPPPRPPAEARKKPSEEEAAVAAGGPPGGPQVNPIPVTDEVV
Put plainly: NOX2 inhibition assay (L-012), human blood-derived granulocytes. The assay is classed as cell-based. As to conditions: fMLP/PMA stimulated. On the procedure: Evaluation of the NOX4 inhibitors on NOX2 activity is assessed in human blood-derived granulocytes.
Afterwards, freshly isolated granulocytes are added to the wells containing the compounds in assay buffer and incubated for 1 h at 37° C. Next, a solution of Nformylmethionine-leucyl-phenylalanine (fMLP; 730 nM), phorbol myristate acetate (PMA, 100 nM) (stimuli of ROS production) and L-012 (200 μM, ROS indicator) is added to the wells and the cells are incubated for additional 30 mins at 37° C. Afterwards luminescence is measured in a SpectraMax M5 microplate reader.

In a further assay the target is T2, human NOX4 (hNOX4) (Homo sapiens, UniProt Q9NPH5).
T2 sequence (Q9NPH5 1-578): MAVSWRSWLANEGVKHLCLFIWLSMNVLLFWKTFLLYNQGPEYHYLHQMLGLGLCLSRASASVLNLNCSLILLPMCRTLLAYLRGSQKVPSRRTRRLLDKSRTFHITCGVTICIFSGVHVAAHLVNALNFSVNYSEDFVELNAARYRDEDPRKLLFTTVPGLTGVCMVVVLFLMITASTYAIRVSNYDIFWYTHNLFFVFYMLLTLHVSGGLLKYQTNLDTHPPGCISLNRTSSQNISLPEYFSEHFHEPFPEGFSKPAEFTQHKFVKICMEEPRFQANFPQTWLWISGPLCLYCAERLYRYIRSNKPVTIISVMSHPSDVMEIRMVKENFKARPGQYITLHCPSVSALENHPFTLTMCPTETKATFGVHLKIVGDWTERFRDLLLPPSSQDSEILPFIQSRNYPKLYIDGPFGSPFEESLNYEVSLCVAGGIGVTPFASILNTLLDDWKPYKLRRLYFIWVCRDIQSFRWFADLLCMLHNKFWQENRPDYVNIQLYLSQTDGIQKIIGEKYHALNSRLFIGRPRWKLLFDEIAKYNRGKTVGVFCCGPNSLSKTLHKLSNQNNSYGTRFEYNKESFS
T2 sequence (P13498 2-195 partner limits assumed): T1 sequence (P13498 2-195 partner limits assumed)
Put plainly: cell-based.

Method for human NOX4 (hNOX4): The synthetic gene phNOX4_DNA3_1_Zeo (Accession: AAF68973) is assembled from synthetic oligonucleotides and/or PCR products. The fragment is cloned into pcDNA3.1_Zeo_A011 using NheI and XhoI cloning sites. The plasmid DNA is purified from transformed bacteria and its concentration is determined by UV spectroscopy. The final construct is verified by sequencing. The plasmid is transfected via electroporation (Amaxa electroporation device) in combination with Nucleofector Kit V. Selection of NOX4 overexpressing genes is achieved using selection antibiotic Zeocin.
The inhibitory activity of the example compounds of the invention is determined using the following procedure:
Cells are cultured in the Dulbecco's Modified Eagle Medium (DMEM) media containing 4.5 g/L glucose supplemented with 10% fetal calf serum and 250 μg/ml Zeocin in an incubator at 37° C. with 5% CO2. For the assay, cells are seeded in 384 well plates.
After incubation Lumigen HyPerBlu™ is added and cells are incubated for additional 30 min at 24° C. in a humidified incubator. Next, luminescence is measured using an Envision Multimode Plate reader to determine levels of produced H2O2 in the wells.

With `O=c1c2scnc2nc(SCc2ccc(Cl)cc2F)n1-c1cc(F)c(O)c(F)c1` [Example 2, 5-((4-Chloro-2-fluorobenzyl)thio)-6-(3,5-difluoro-4-hydroxyphenyl)thiazolo[4,5-d]-pyrimidin-7(6H)-one], the concentration for half-maximal inhibition (IC50) at NOX2 was above 100000 nM; at human NOX4 (hNOX4), 39 nM.
Turning to `Cc1cc(Cl)ccc1CSc1nc2ncsc2c(=O)n1-c1cc(F)c(O)c(F)c1` [Example 3], the IC50 on NOX2 is above 100000 nM; at human NOX4 (hNOX4), 73 nM.
In the case of `Cc1cc(F)cc(C)c1CSc1nc2ncsc2c(=O)n1-c1cc(F)c(O)c(F)c1` [Example 4], the results for the IC50 against NOX2 and against human NOX4 (hNOX4) were above 100000 nM and 91 nM, respectively.
For `O=c1c2scnc2nc(SCc2ccc(Cl)cc2)n1-c1cc(F)c(O)c(F)c1` [Example 5], in that order: above 100000 nM and 24 nM.
The like results for `O=c1c2scnc2nc(SCc2ccc(C(F)(F)F)cc2F)n1-c1cc(F)c(O)c(F)c1` [Example 6] were, in that order, above 100000 nM and 87 nM.
`O=c1c2scnc2nc(SCc2ccc(C(F)(F)F)cc2)n1-c1cc(F)c(O)c(F)c1` [Example 7]: the half-inhibitory concentration (IC50) is above 100000 nM at NOX2 and 77 nM on human NOX4 (hNOX4).
As to `O=c1c2scnc2nc(SCc2c(F)cc(F)cc2F)n1-c1cc(F)c(O)c(F)c1` [Example 8], the IC50 against NOX2 is above 30000 nM; on human NOX4 (hNOX4), 43 nM.
Turning to `Cc1cc(F)ccc1CSc1nc2ncsc2c(=O)n1-c1cc(F)c(O)c(F)c1` [Example 9], the IC50 against NOX2 is above 100000 nM; against human NOX4 (hNOX4) it was 29 nM.
The like results for `O=c1c2scnc2nc(SCc2c(F)cc(F)cc2F)n1-c1cc(F)c(O)cc1F` [Example 10, 6-(2,5-Difluoro-4-hydroxyphenyl)-5-((2,4,6-trifluorobenzyl)thio)thiazolo[4,5-d]pyrimidin-7(6H)-one] were, in that order, above 30000 nM and 27 nM.
As for `O=c1c2scnc2nc(SCc2c(F)cc(F)cc2F)n1-c1ccc(O)c(F)c1` [Example 11], the IC50 on NOX2 is above 30000 nM; against human NOX4 (hNOX4) it was 42 nM.
For `O=c1c2scnc2nc(SCc2c(F)cc(F)cc2F)n1-c1ccc(O)c(F)c1F` [Example 12], in that order: above 30000 nM and 51 nM.
The like results for `O=c1c2scnc2nc(SCc2c(F)cc(F)cc2F)n1-c1c(F)cc(O)cc1F` [Example 13] were, in that order, 84600 nM and 61 nM.
For `O=c1c2scnc2nc(SCc2c(F)cc(F)cc2F)n1-c1ccc(O)cc1F` [Example 14], in that order: 13400 nM and 38 nM.
`O=c1c2scnc2nc(SCc2c(F)cc(F)cc2F)n1-c1ccc(O)cc1` [Example 15]: the values for the 50% inhibitory concentration (IC50) at NOX2 and at human NOX4 (hNOX4) were 10300 nM and 33 nM, respectively.
The like results for `O=c1c2scnc2nc(SCc2c(F)cc(F)cc2F)n1-c1ccc(O)c(Cl)c1` [Example 16] were, in that order, above 100000 nM and 367 nM.
Consider `O=c1c2scnc2nc(SCc2c(F)cc(F)cc2F)n1-c1ccc(O)cc1Cl` [Example 17], for which the IC50 against human NOX4 (hNOX4) came out at 314 nM.
For the compound `N#Cc1cc(-n2c(SCc3c(F)cc(F)cc3F)nc3ncsc3c2=O)ccc1O` [Example 18], the IC50 at NOX2 is above 30000 nM; on human NOX4 (hNOX4), 117 nM.
In the case of `O=c1c2scnc2nc(SCc2c(F)cc(F)cc2F)n1-c1ccc(O)cn1` [Example 19], the IC50 on NOX2 came out at 48100 nM.
On to `O=c1c2scnc2nc(SCc2c(F)cc(F)cc2F)n1-c1cc(F)c(O)cn1` [Example 20], for which the IC50 at NOX2 is above 100000 nM; at human NOX4 (hNOX4) it was 127 nM.
The like results for `O=c1c2scnc2nc(SCc2c(F)cc(F)cc2F)n1-c1ncc(O)cn1` [Example 21, 6-(5-Hydroxypyrimidin-2-yl)-5-((2,4,6-trifluorobenzyl)thio)thiazolo[4,5-d]pyrimidin-7(6H)-one] were, in that order, above 100000 nM and 174 nM.
On to `O=c1c2scnc2nc(SCc2ccc(Cl)cc2F)n1-c1ccc(O)nc1` [Example 22, 5-((4-Chloro-2-fluorobenzyl)thio)-6-(6-hydroxypyridin-3-yl)thiazolo[4,5-d]pyrimidin-7(6H)-one], for which the values for the IC50 at NOX2 and against human NOX4 (hNOX4) were above 30000 nM and 69 nM, respectively.
The like results for `Cc1cc(Cl)ccc1CSc1nc2ncsc2c(=O)n1-c1ccc(O)nc1` [Example 23] were, in that order, above 100000 nM and 96 nM.
Regarding `Cc1cc(F)cc(C)c1CSc1nc2ncsc2c(=O)n1-c1ccc(O)nc1` [Example 24], the figures for the IC50 against NOX2 and at human NOX4 (hNOX4) were 10300 nM and 98 nM, respectively.
With `O=c1c2scnc2nc(SCc2ccc(Cl)cc2)n1-c1ccc(O)nc1` [Example 25], the IC50 at NOX2 is above 100000 nM; on human NOX4 (hNOX4), 100 nM and 101 nM.
As to `O=c1c2scnc2nc(SCc2ccc(C(F)(F)F)cc2F)n1-c1ccc(O)nc1` [Example 26], the IC50 was above 100000 nM on NOX2 and 120 nM against human NOX4 (hNOX4).
The like results for `O=c1c2scnc2nc(SCc2ccc(C(F)(F)F)cc2)n1-c1ccc(O)nc1` [Example 27] were, in that order, above 100000 nM and 135 nM.
Turning to `O=c1c2scnc2nc(SCc2c(F)cc(F)cc2F)n1-c1ccc(O)nc1` [Example 28], the IC50 on NOX2 is above 30000 nM; against human NOX4 (hNOX4), 136 nM.
Turning to `Cc1cc(F)ccc1CSc1nc2ncsc2c(=O)n1-c1ccc(O)nc1` [Example 29], the IC50 against NOX2 is 36900 nM; at human NOX4 (hNOX4), 150 nM and 145 nM.
In the case of `O=c1c2scnc2nc(SCc2ccc(F)cc2)n1-c1ccc(O)nc1` [Example 30], the IC50 was above 30000 nM at NOX2 and 539 nM against human NOX4 (hNOX4).
For `O=c1c2scnc2nc(SCc2c(F)cc(F)cc2F)n1-c1cnc(O)c(F)c1` [Example 31, 6-(5-Fluoro-6-hydroxypyridin-3-yl)-5-((2,4,6-trifluorobenzyl)thio)thiazolo[4,5-d]-pyrimidin-7(6H)-one], in that order: 10500 nM and 60 nM.
For `O=c1c2scnc2nc(SCc2ccc(C(F)(F)F)cc2)n1-c1cnc(O)c(F)c1` [Example 32, 6-(5-Fluoro-6-hydroxypyridin-3-yl)-5-((4-(trifluoromethyl)benzyl)thio)thiazolo[4,5-d]pyrimidin-7(6H)-one], in that order: above 100000 nM and 40 nM.
Consider `O=c1c2scnc2nc(SCc2ccc(Cl)cc2)n1-c1cnc(O)c(F)c1` [Example 33], for which the IC50 against NOX2 was above 100000 nM; against human NOX4 (hNOX4), 29 nM.
For `O=c1c2scnc2nc(SCc2ccc(Br)cc2F)n1-c1cnc(O)c(F)c1` [Example 34], in that order: above 100000 nM and 29 nM.
The like results for `O=c1c2scnc2nc(SCc2ccc(Cl)cc2F)n1-c1cnc(O)c(F)c1` [Example 35] were, in that order, above 100000 nM and 33 nM.
Turning to `Cc1cc(F)ccc1CSc1nc2ncsc2c(=O)n1-c1cnc(O)c(F)c1` [Example 36], the IC50 is above 100000 nM on NOX2 and 34 nM at human NOX4 (hNOX4).
For `Cc1cc(Cl)ccc1CSc1nc2ncsc2c(=O)n1-c1cnc(O)c(F)c1` [Example 37], in that order: above 100000 nM and 34 nM.
For `O=c1c2scnc2nc(SCc2ccc(F)cc2F)n1-c1cnc(O)c(F)c1` [Example 38], in that order: above 100000 nM and 48 nM.
For the compound `O=c1c2scnc2nc(SCc2ccc(Cl)cc2Cl)n1-c1cnc(O)c(F)c1` [Example 39], the IC50 at NOX2 was above 100000 nM; against human NOX4 (hNOX4) it was 56 nM.
The like results for `Cc1c(F)cccc1CSc1nc2ncsc2c(=O)n1-c1cnc(O)c(F)c1` [Example 40] were, in that order, above 100000 nM and 59 nM.
